Among the data in ChEMBL document CHEMBL5365514, “Redefining Cancer Therapy: Toward BCL-XL/BCL-2 Dual Inhibitors with Diminished Platelet Toxicity” (ACS Med Chem Lett, 2023) are IC50 values, retold here.

One experiment has as its system RS4-11. The experiment in a line: Antiproliferative activity against human RS4-11 cells assessed as inhibition of cell growth measured after 48 hrs by MTS assay. Conditions: RS4-11, 48 h. Type of experiment: functional, cell-based. For orientation: Formazan colour is commonly taken as a measure of viable cells.
The test system of the next experiment is MOLT-4. Kind of experiment: Antiproliferative activity against human MOLT-4 cells assessed as inhibition of cell growth measured after 48 hrs by MTS assay. As to conditions: MOLT-4, 48 h. In kind it is functional, cell-based.

A value given as a limit tells only on which side of the number the result lay.

Regarding `Cc1ncsc1-c1ccc([C@H](C)NC(=O)[C@@H]2C[C@@H](O)CN2C(=O)[C@@H](NC(=O)CCCCC(=O)N2CCN(C3CCN(C[C@]4(C)CCC(c5ccc(Cl)cc5)=C(CN5CCN(c6ccc(C(=O)NS(=O)(=O)c7ccc(N[C@H](CCN8CCCOCC8)CSc8ccccc8)c(S(=O)(=O)C(F)(F)F)c7)cc6)CC5)C4)CC3)CC2)C(C)(C)C)cc1`, the IC50 with RS4-11 and in the experiment with MOLT-4 was < 20 nM in each case.

With `Cc1ncsc1-c1ccc([C@H](C)NC(=O)[C@@H]2C[C@@H](O)CN2C(=O)[C@@H](NC(=O)CN(C)CCC(=O)N2CCC(C3CCN(C[C@]4(C)CCC(c5ccc(Cl)cc5)=C(CN5CCN(c6ccc(C(=O)NS(=O)(=O)c7ccc(N[C@H](CCN8CCCOCC8)CSc8ccccc8)c(S(=O)(=O)C(F)(F)F)c7)cc6)CC5)C4)CC3)CC2)C(C)(C)C)cc1`, the concentration for half-maximal inhibition (IC50) in the experiment on RS4-11 and in the experiment with MOLT-4 was < 20 nM each time.

Consider `Cc1ncsc1-c1ccc([C@H](C)NC(=O)[C@@H]2C[C@@H](O)CN2C(=O)[C@@H](NC(=O)CN(C)CC(=O)N2CCC(C3CCN(C[C@]4(C)CCC(c5ccc(Cl)cc5)=C(CN5CCN(c6ccc(C(=O)NS(=O)(=O)c7ccc(N[C@H](CCN8CCCOCC8)CSc8ccccc8)c(S(=O)(=O)C(F)(F)F)c7)cc6)CC5)C4)CC3)CC2)C(C)(C)C)cc1`, for which the IC50 in the experiment on RS4-11 and in the experiment on MOLT-4 was < 20 nM each time.
